Results published in ChEMBL document CHEMBL2034968, “Discovery of novel urea-based hepatitis C protease inhibitors with high potency against protease-inhibitor-resistant mutants” (J Med Chem, 2012).

Tests used:
[1] = Inhibition of HCV 1a protease 1a domain; design: species or system Hepacivirus hominis
Hepatitis C virus [2] = assay: Antiviral activity against Hepatitis C virus subtype 1b by stable replicon assay; format: functional, organism-based, Hepacivirus hominis; settings: genotype 1b
Hepatitis C virus [3] = assay: Antiviral activity against Hepatitis C virus subtype 1a by stable replicon assay; format: functional, organism-based, Hepacivirus hominis
Hepatitis C virus [4] = assay: Antiviral activity against Hepatitis C virus subtype 1b harboring protease D168V mutant by transient replicon assay; format: functional, organism-based, Hepacivirus hominis; settings: genotype 1b
Hepatitis C virus [5] = assay: Antiviral activity against Hepatitis C virus subtype 1b harboring protease D168A mutant by transient replicon assay; format: functional, organism-based, Hepacivirus hominis; settings: genotype 1b
Hepatitis C virus [6] = assay: Antiviral activity against Hepatitis C virus subtype 1b harboring protease A156V mutant by transient replicon assay; format: functional, organism-based, Hepacivirus hominis; settings: genotype 1b
Hepatitis C virus [7] = assay: Antiviral activity against Hepatitis C virus subtype 1b harboring protease A156T mutant by transient replicon assay; format: functional, organism-based, Hepacivirus hominis; settings: genotype 1b
Hepatitis C virus [8] = assay: Antiviral activity against Hepatitis C virus subtype 1b harboring protease A156S mutant by transient replicon assay; format: functional, organism-based, Hepacivirus hominis; settings: genotype 1b
Hepatitis C virus [9] = assay: Antiviral activity against wild type Hepatitis C virus subtype 1b by transient replicon assay; format: functional, organism-based, Hepacivirus hominis; settings: genotype 1b
Hepatitis C virus [10] = assay: Antiviral activity against Hepatitis C virus subtype 1b harboring protease R155K mutant by transient replicon assay; format: functional, organism-based, Hepacivirus hominis; settings: genotype 1b
Hepatitis C virus [11] = assay: Resistance index, ratio of EC50 for Hepatitis C virus subtype 1b harboring protease R155K mutant to EC50 for wild type Hepatitis C virus subtype 1b; format: functional, Hepacivirus hominis, genotype 1b
Hepatitis C virus [12] = assay: Resistance index, ratio of EC50 for Hepatitis C virus subtype 1b harboring protease D168A mutant to EC50 for wild type Hepatitis C virus subtype 1b; format: functional, Hepacivirus hominis, genotype 1b
Hepatitis C virus [13] = assay: Resistance index, ratio of EC50 for Hepatitis C virus subtype 1b harboring protease D168V mutant to EC50 for wild type Hepatitis C virus subtype 1b; format: functional, Hepacivirus hominis, genotype 1b

| SMILES | IC50 [1] | EC50 (Hepatitis C virus [2]) | EC50 (Hepatitis C virus [3]) | EC50 (Hepatitis C virus [4]) | EC50 (Hepatitis C virus [5]) | EC50 (Hepatitis C virus [6]) | EC50 (Hepatitis C virus [7]) | EC50 (Hepatitis C virus [8]) | EC50 (Hepatitis C virus [9]) | EC50 (Hepatitis C virus [10]) | Ratio EC50 (Hepatitis C virus [11]) | Ratio EC50 (Hepatitis C virus [12]) | Ratio EC50 (Hepatitis C virus [13]) |
| --- | --- | --- | --- | --- | --- | --- | --- | --- | --- | --- | --- | --- | --- |
| COc1ccc2c(O[C@@H]3C[C@H]4C(=O)N[C@]5(C(=O)NS(=O)(=O)C6CC6)C[C@H]5/C=C\CCCCC[C@H](NC(=O)N5C[C@@H](C)O[C@@H](C)C5)C(=O)N4C3)cc(-c3nc(C(C)C)cs3)nc2c1C | 2 nM | 1.2 nM | 10.6 nM | 2090 nM | 423 nM | 69 nM | 23 nM | 1 nM | 0.7 nM | 233 nM |  |  |  |
| CCN(CC)C(=O)N[C@H]1CCCCC/C=C\[C@@H]2C[C@@]2(C(=O)NS(=O)(=O)C2CC2)NC(=O)[C@@H]2C[C@@H](Oc3cc(-c4nc(C(C)C)cs4)nc4c(C)c(OC)ccc34)CN2C1=O | 1 nM | 0.7 nM | 0.9 nM | 131 nM | 56 nM | 8 nM | 2 nM | 0.5 nM | 0.1 nM | 15 nM |  |  |  |
| COc1ccc2c(O[C@@H]3C[C@H]4C(=O)N[C@]5(C(=O)NS(=O)(=O)C6CC6)C[C@H]5/C=C\CCCCC[C@H](NC(=O)N5CCN(C6CCCC6)CC5)C(=O)N4C3)cc(-c3nc(C(C)C)cs3)nc2c1C | 2 nM | 0.3 nM | 0.5 nM | 477 nM | 169 nM | 32 nM | 5 nM |  | 0.1 nM | 60 nM |  |  |  |
| COc1ccc2c(O[C@@H]3C[C@H]4C(=O)N[C@]5(C(=O)NS(=O)(=O)C6CC6)C[C@H]5/C=C\CCCCC[C@H](NC(=O)N(C)C)C(=O)N4C3)cc(-c3nc(C(C)C)cs3)nc2c1C | 2 nM | 0.1 nM | 0.3 nM | 57 nM | 36 nM | 5 nM | 1 nM |  | 0.04 nM | 10 nM |  |  |  |
| COc1ccc2c(O[C@@H]3C[C@H]4C(=O)N[C@]5(C(=O)NS(=O)(=O)C6CC6)C[C@H]5/C=C\CCCCC[C@H](NC(=O)N5CCC(CC(N)=O)CC5)C(=O)N4C3)cc(-c3nc(C(C)C)cs3)nc2c1C | 2 nM | 1.5 nM | 5.6 nM |  | 431 nM | 10 nM | 3 nM | 0.1 nM | 0.2 nM | 65 nM |  |  |  |
| COc1ccc2c(O[C@@H]3C[C@H]4C(=O)N[C@]5(C(=O)NS(=O)(=O)C6CC6)C[C@H]5/C=C\CCCCC[C@H](NC(=O)N(C)C(C)(C)C)C(=O)N4C3)cc(-c3nc(C4CC4)cs3)nc2c1C |  | 1 nM | 1 nM | 84 nM | 71 nM | 9 nM | 7 nM | 0.4 nM | 0.2 nM | 28 nM | <1000 | <1000 | <1000 |
| COc1ccc2c(O[C@@H]3C[C@H]4C(=O)N[C@]5(C(=O)NS(=O)(=O)C6CC6)C[C@H]5/C=C\CCCCC[C@H](NC(=O)N5CCS(=O)(=O)CC5)C(=O)N4C3)cc(-c3nc(C(C)C)cs3)nc2c1C | 2 nM | 0.5 nM | 2.3 nM | 1420 nM | 372 nM | 38 nM | 5 nM | 0.3 nM | 0.4 nM | 115 nM |  |  |  |
| COc1ccc2c(O[C@@H]3C[C@H]4C(=O)N[C@]5(C(=O)NS(=O)(=O)C6CC6)C[C@H]5/C=C\CCCCC[C@H](NC(=O)N5CCC(CO)CC5)C(=O)N4C3)cc(-c3nc(C(C)C)cs3)nc2c1C | 1 nM | 0.3 nM | 0.7 nM | 141 nM | 47 nM | 9 nM | 2 nM |  | 0.1 nM | 14 nM |  |  |  |
| COc1ccc2c(O[C@@H]3C[C@H]4C(=O)N[C@]5(C(=O)NS(=O)(=O)C6CC6)C[C@H]5/C=C\CCCCC[C@H](NC(=O)N5CC6CCCC6C5)C(=O)N4C3)cc(-c3nc(C(C)C)cs3)nc2c1C (stereo partly specified) | 5 nM | 0.3 nM | 0.3 nM | 83 nM | 23 nM | 15 nM | 1 nM | 0.1 nM | 0.01 nM | 11 nM |  |  |  |
| COc1ccc2c(O[C@@H]3C[C@H]4C(=O)N[C@]5(C(=O)NS(=O)(=O)C6CC6)C[C@H]5/C=C\CCCCC[C@H](NC(=O)NCc5ccc6c(c5)B(O)OC6)C(=O)N4C3)cc(-c3nc(C(C)C)cs3)nc2c1C | 2 nM | 0.8 nM | 3.4 nM | 144 nM | 249 nM | 9 nM | 7 nM | 0.2 nM | 0.9 nM | 49 nM |  |  |  |
| COc1ccc2c(O[C@@H]3C[C@H]4C(=O)N[C@]5(C(=O)O)C[C@H]5/C=C\CCCCC[C@H](NC(=O)OC5CCCC5)C(=O)N4C3)cc(-c3csc(NC(C)C)n3)nc2c1 [CILUPREVIR] | 2 nM | 0.5 nM | 2.2 nM | 438 nM | 205 nM | 627 nM | 604 nM | 3 nM | 1 nM | 241 nM |  |  |  |
| COc1ccc2c(O[C@@H]3C[C@H]4C(=O)N[C@]5(C(=O)NS(=O)(=O)C6CC6)C[C@H]5/C=C\CCCCC[C@H](NC(N)=O)C(=O)N4C3)cc(-c3nc(C(C)C)cs3)nc2c1C | 2 nM | 0.5 nM | 1.8 nM | 2260 nM | 873 nM | 16 nM | 6 nM |  | 0.4 nM | 66 nM |  |  |  |
| COc1ccc2c(O[C@@H]3C[C@H]4C(=O)N[C@]5(C(=O)NS(=O)(=O)C6CC6)C[C@H]5/C=C\CCCCC[C@H](NC(=O)N5CCC(c6ccccc6)CC5)C(=O)N4C3)cc(-c3nc(C(C)C)cs3)nc2c1C | 7 nM | 0.9 nM | 1.6 nM | 386 nM | 182 nM | 30 nM | 5 nM |  | 0.2 nM | 69 nM |  |  |  |
| COc1ccc2c(O[C@@H]3C[C@H]4C(=O)N[C@]5(C(=O)NS(=O)(=O)C6CC6)C[C@H]5/C=C\CCCCC[C@H](NC(=O)N5CCC(C)(C)C5)C(=O)N4C3)cc(-c3nc(C(C)C)cs3)nc2c1C | 2 nM | 0.5 nM | 0.6 nM | 138 nM | 28 nM | 11 nM | 2 nM |  | 0.1 nM | 17 nM |  |  |  |
| CC[C@@H]1C[C@]1(NC(=O)[C@@H]1C[C@@H]2CN1C(=O)[C@H](C(C)(C)C)NC(=O)OCC(C)(C)CCCCc1cccc3c1CN(C3)C(=O)O2)C(=O)NS(=O)(=O)C1CC1 [VANIPREVIR] |  |  |  |  |  |  |  |  | 1.6 nM |  |  |  |  |
| CC(C)(C)NC(=O)N[C@H](C(=O)N1C[C@H]2[C@@H]([C@H]1C(=O)NC(CC1CCC1)C(=O)C(N)=O)C2(C)C)C(C)(C)C (stereo partly specified) [BOCEPREVIR] |  |  |  | 40 nM |  |  | 12000 nM |  | 400 nM | 700 nM |  |  |  |
| COc1ccc2c(O[C@@H]3C[C@H]4C(=O)N[C@]5(C(=O)NS(=O)(=O)C6CC6)C[C@H]5/C=C\CCCCC[C@H](NC(=O)N5CCC(N6CCCC6)CC5)C(=O)N4C3)cc(-c3nc(C(C)C)cs3)nc2c1C | 2 nM | 0.5 nM | 0.6 nM |  | 1620 nM | 98 nM | 12 nM | 1.9 nM | 0.5 nM | 102 nM |  |  |  |
| COc1ccc2c(O[C@@H]3C[C@H]4C(=O)N[C@]5(C(=O)NS(=O)(=O)C6CC6)C[C@H]5/C=C\CCCCC[C@H](NC(=O)N5CCC(CC(=O)O)CC5)C(=O)N4C3)cc(-c3nc(C(C)C)cs3)nc2c1C | 0.9 nM | 0.8 nM | 2.2 nM | 161 nM | 7 nM | 3 nM | 1 nM | 0.2 nM | 0.1 nM | 21 nM |  |  |  |
| COc1ccc2c(O[C@@H]3C[C@H]4C(=O)N[C@]5(C(=O)NS(=O)(=O)C6CC6)C[C@H]5/C=C\CCCCC[C@H](NC(=O)NCc5ccc(CO)c(O)c5)C(=O)N4C3)cc(-c3nc(C(C)C)cs3)nc2c1C | 0.5 nM | 1.1 nM | 15.5 nM |  |  |  |  |  |  |  |  |  |  |
| COc1ccc2c(O[C@@H]3C[C@H]4C(=O)N[C@]5(C(=O)NS(=O)(=O)C6CC6)C[C@H]5/C=C\CCCCC[C@H](NC(=O)N5CCOCC5)C(=O)N4C3)cc(-c3nc(C(C)C)cs3)nc2c1C | 2 nM | 0.5 nM | 0.3 nM | 33 nM | 17 nM | 2 nM | 0.2 nM | 0.03 nM | 0.01 nM | 4 nM |  |  |  |
| COc1ccc2c(O[C@@H]3C[C@H]4C(=O)N[C@]5(C(=O)NS(=O)(=O)C6CC6)C[C@H]5/C=C\CCCCC[C@H](NC(=O)N5CCCC5)C(=O)N4C3)cc(-c3nc(C(C)C)cs3)nc2c1C | 4 nM | 0.4 nM | 0.4 nM | 200 nM | 86 nM | 9 nM | 2 nM | 0.2 nM | 0.1 nM | 15 nM |  |  |  |
| COc1ccc2c(O[C@@H]3C[C@H]4C(=O)N[C@]5(C(=O)NS(=O)(=O)C6CC6)C[C@H]5/C=C\CCCCC[C@H](NC(=O)N5CCC(O)CC5)C(=O)N4C3)cc(-c3nc(C(C)C)cs3)nc2c1C | 2 nM | 0.3 nM | 0.6 nM | 154 nM | 42 nM | 9 nM | 2 nM |  | 0.1 nM | 7 nM |  |  |  |
